Results on 2 compounds are retold here after paper PMC8359946, “Expanding the Substrate Scope of Nitrating Cytochrome P450 TxtE by Active Site Engineering of a Reductase Fusion” (Chembiochem, 2021).

Test [1] has as its target T1, TxtE (His6-TxtE-BM3R fusion) (Streptomyces scabiei, UniProt C9ZDC6).
T1 construct: His6-TxtE-BM3R fusion with the full length heme-reductase linker (27 aa) from CYP102A1
In words: UV-Vis difference spectroscopy titration; purified-enzyme nitration assay. The format is binding.

Test [2] addresses T2, TxtE (His6-TxtE-BM3R fusion) (Streptomyces scabiei, UniProt C9ZDC6, R59C).
T2 construct: His6-TxtE-BM3R(R59C)
In words: UV-Vis difference spectrum (type II); LC-MS nitration assay with purified enzyme. The format is binding.

As for `N[C@@H](Cc1c[nH]c2ccccc12)C(=O)O` [L-tryptophan], the Kd in test [1] came to 84 ± 2 µM.
Turning to `NCCc1c[nH]c2ccccc12` [compound 1, tryptamine], in test [2], the “UV-Vis difference spectrum (type II); LC-MS nitration assay with purified enzyme” value was “a similar spectrum is observed for binding of tryptamine to His6‐TxtE‐BMR3(R59C)”.

What is called Kd is the equilibrium constant for the complex coming apart. Lower therefore signals a tighter complex.
